Data published in publication PMC4957076, “Shared mechanism of teratogenicity of anti-angiogenic drugs identified in the chicken embryo model” (Scientific Reports, 2016).

Assays:
[1] = test system: HUVEC cells; experiment: Endothelial cell proliferation assay (CCK-8); format: cell-based, Human; conditions: Homo sapiens, 18 hours exposure, CCK-8 assay, n = 9
Experimental: Anti-angiogenic drugs were screened in a concentration gradient in the HUVEC culture assay. […] Cell proliferation was assessed using a CCK-8 assay (Dojindo). Statistical analysis by two-way Anova. Error represents the standard error of the mean.
HUVEC cells were purchased from ATCC (Manassas, VA) and cultured as previously described. No further authentication was performed. Cells were seeded at 6.5 × 10^4 cells per well in 100 μL of medium per well. Drugs were diluted in prewarmed DMEM. Serial dilutions were performed from 1000–0.1 nM. The cells were left to grow for 18 hours with exposure to vehicle control (DMSO) or drugs. Experiments were done in triplicate each time. Cellular proliferation was assessed using a CCK-8 assay (Dojindo, Rockville, MD). All plates were read at 450 nm.

[2] = test system: chicken embryos
Experimental: We then administered the compounds to developing chicken embryos to observe any teratogenic effects. […] At 48 hours post drug application both the survival rate and the incidence of defects were analyzed. A range of concentrations was tested to determine the effects and optimal concentration that was not 100% lethal.
Fertilized white leghorn chicken embryos purchased from Henry Stewart Ltd. (Herefordshire, United Kingdom) were maintained in an incubator as described previously. At Hamburger and Hamilton stage 18–20 (E2.5-3)[54] the eggs were windowed and the embryos were prepared for drug exposure. To establish a dose response the drugs were applied once to the embryos and growth was monitored as described previously. In a second set of experiments, filter paper squares were cut 100 μm × 100 μm and soaked in the compound of interest for 10 minutes. While the filter paper squares absorbed the solution, embryonic membranes were removed and the sponge was then placed onto the limb bud. The eggs were sealed with tape and returned to an incubator. The embryos were checked daily for developmental defects and to ensure the filter paper squares remained in place. Control embryos were treated with 100 μL PBS with 0.1% DMSO. Embryos were removed from the eggs and fixed in 5% TCA at 4 degrees for 24 hours. Embryos were then washed in alcian blue for 8 hours, and placed in acid ethanol over night before being dehydrated in 100% ethanol for three one hour treatments. The tissue was then cleared in methyl salicylate. Cartilage was imaged and subsequently measured using a graticule scale and ImageJ. A minimum of 8 embryos was used per drug, per concentration. All animal work was licensed and carried out in accordance with and with approval of UK Home Office and Institutional ethical and welfare guidelines.

[3] = test system: developing limb bud of chicken embryos; experiment: Drug-soaked filter paper square placed on the developing limb bud of chicken embryos; format: in vivo; conditions: filter paper square soaked in drug, HH St 18–20
From the text: Given the potency of these drugs and the resulting embryonic lethality we focused our attention on how the drugs affect limb development. The developing limb bud is a well studied morphological assay[22][41][42] ideal for understanding mechanisms of embryogenesis and how drugs influence this process. Moreover, other anti-angiogenic drugs like thalidomide and valproate cause limb defects. […] We therefore established a method where a small filter paper square soaked in the drug of interest could be placed directly onto the limb tissue of the embryo, thus avoiding or minimalizing exposure of the drug to other developing tissue/structures and retaining high viability. Filter paper squares were soaked for 10 minutes prior to removal of the embryonic membrane of HH St 18–20 (E2.5-E3) chicken embryos, then placed over the developing limb bud. Filter paper squares soaked in 0.1% DMSO had no effect on limb outgrowth.
The tissue was then cleared in methyl salicylate.

[4] = test system: fli1:EGFP zebrafish embryos; experiment: fli1:EGFP zebrafish embryo exposure: survival and intersegmental vessel development; format: in vivo
Experimental: We then examined the extent and nature of the anti-angiogenic effects of the compounds using transgenic fli1:EGFP zebrafish embryos. The vasculature of these fish is tagged with EGFP and the transparency of the zebrafish allows for visualization of the forming blood vessels and any effect of anti-cancer drugs on their development over time (Fig. 4). A known anti-angiogenic and teratogenic compound (CPS49) was screened alongside the drugs as a positive control at 10 μg/mL (30 μM), a previously established anti-angiogenic concentration.
fli1:EGFP zebrafish were obtained from the Zebrafish international Resource Centre[29] and maintained in an approved aquarium habitat at 28 °C. At 24 hours post fertilization (hpf) the embryos were checked for GFP expression using a fluorescent microscope and manually dechorionated with forceps, exposed to either a vehicle control, or an anti-angiogenic anti-cancer compound (at 24 hpf) for 24 hours and imaged at 48 hpf. At this point the embryos were anaesthetized in 0.1% tricaine and the length and number of intersegmental vessels (ISV) were quantified as previously described. A minimum of 10 embryos were screened per drug, per concentration, and experiments were performed in triplicate.

[5] = human; cited from earlier work
[6] = test system: Mouse; conditions: cited from earlier work

With `CO[C@@H]1[C@H](OC(=O)NC(=O)CCl)CC[C@]2(CO2)[C@H]1[C@@]1(C)O[C@@H]1CC=C(C)C` [TNP-470] the IC50 [1] was less than 0.01 µM, the “Defects produced in chicken embryos” value ([2]; Table 1 summary) was “Embryolethality, cranial hemorrhaging, micropthalmia, limb defects, spine” and the “defects observed in treated embryos” value ([2]; global treatment, surviving embryos) was “twisting of the spinal cord”. For the same compound, the “effect on limb after direct application to limb bud” value [3] was “Tissue was necrotic-looking”, the treated zebrafish killed ([4]; 200 μg/mL) was 90% and the vessel outgrowth ([4]; 200 μg/mL) was “reducing vessel outgrowth”. The “effect at low doses” value ([4]; <200 μg/mL) was “little effect”, the “relative potency in reducing vessel outgrowth” value ([4]; concentration gradient, within 24 hours of drug exposure) was “no effect until 200 μg/mL” and the “Clinical Toxicities” value [5] was “Neurotoxicity”. The Defects produced ([6]; Mouse/Mice) was “Complete failure of embryonic growth”, the “Systemic exposure (AUC) compared to human exposure” value ([6]; Mouse/Mice) was “Below human” and the “effect during pregnancy in mouse models” value [6] was “anti-angiogenic, disrupting newly developing blood vessels in the placenta and embryonic eye”.
